Measurements from the supplement of paper PMC11061612.

Experiments:
Assay in all cases: Bliss excess, mean over the matrix (fraction); higher = more synergy
CS1 (Chondrosarcoma) = system: CS1 (Chondrosarcoma)
Procedure, shortened: (§1)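 Cell lines in DMEM/F12 or RPMI with 10% FBS were plated in 1536-well plates, held 24 hours at 37°C, 5% CO2, then given two-drug dose matrices for 72 hours (DMSO typically 0.2%). Viability was read by CellTiter-Glo 2.0 luminescence and scaled as inhibition from 0 (vehicle wells) to 1 (blank wells). Combination Emax is the second-highest inhibition in the matrix; Bliss excess is observed combination effect minus expected EA + EB − EA·EB, EA and EB being single-agent effects.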

SK-MEL-1 (Melanoma) = system: SK-MEL-1 (Melanoma)
Procedure, shortened: as §1

[1] = system: ETK-1 (Biliary Tract Carcinoma)
Procedure, shortened: as §1

D-392MG (Glioblastoma) = system: D-392MG (Glioblastoma)
Procedure, shortened: as §1

[2] = system: 647-V (Bladder Carcinoma)
Procedure, shortened: as §1

[3] = system: SK-LMS-1 (Other Solid Carcinomas)
Procedure, shortened: as §1

Saos-2 (Osteosarcoma) = system: Saos-2 (Osteosarcoma)
Procedure, shortened: as §1

[4] = system: NCI-H1688 (Small Cell Lung Carcinoma)
Procedure, shortened: as §1

[5] = system: MEG-01 (Chronic Myelogenous Leukemia)
Procedure, shortened: as §1

[6] = system: GDM-1 (Acute Myeloid Leukemia)
Procedure, shortened: as §1

[7] = system: SLVL (B-Cell Non-Hodgkin's Lymphoma)
Procedure, shortened: as §1

HCC38 (Breast Carcinoma) = system: HCC38 (Breast Carcinoma)
Procedure, shortened: as §1

[8] = system: RCC10RGB (Kidney Carcinoma)
Procedure, shortened: as §1

[9] = system: PA-TU-8902 (Pancreatic Carcinoma)
Procedure, shortened: as §1

[10] = system: U-118-MG (Low Grade Glioma)
Procedure, shortened: as §1

[11] = system: JHH-6 (Hepatocellular Carcinoma)
Procedure, shortened: as §1

[12] = system: HCC-827 (Lung Adenocarcinoma)
Procedure, shortened: as §1

[13] = system: HOP-92 (Non-Small Cell Lung Carcinoma)
Procedure, shortened: as §1

[14] = system: DOK (Oral Cavity Carcinoma)
Procedure, shortened: as §1

A172 (Glioblastoma) = system: A172 (Glioblastoma)
Procedure, shortened: as §1

| SMILES | Bliss excess (CS1 (Chondrosarcoma)) | Bliss excess (SK-MEL-1 (Melanoma)) | Bliss excess [1] | Bliss excess (D-392MG (Glioblastoma)) | Bliss excess [2] | Bliss excess [3] | Bliss excess (Saos-2 (Osteosarcoma)) | Bliss excess [4] | Bliss excess [5] | Bliss excess [6] | Bliss excess [7] | Bliss excess (HCC38 (Breast Carcinoma)) | Bliss excess [8] | Bliss excess [9] | Bliss excess [10] | Bliss excess [11] | Bliss excess [12] | Bliss excess [13] | Bliss excess [14] | Bliss excess (A172 (Glioblastoma)) |
| --- | --- | --- | --- | --- | --- | --- | --- | --- | --- | --- | --- | --- | --- | --- | --- | --- | --- | --- | --- | --- |
| CN(C)CCCOc1ccc(-c2ccc3ncc4c(c3c2)n(C2CCOCC2)c(=O)n4C)cn1 [AZD0156] + C=CCn1c(=O)c2cnc(Nc3ccc(N4CCN(C)CC4)cc3)nc2n1-c1cccc(C(C)(C)O)n1 [AZD1775] (first compound max 1 µM, partner max 1 µM) | -0.0392 | 0.0161 | -0.0096 | -0.0461 | 0.0001 | -0.0203 | -0.0379 | -0.0033 | 0.0032 | -0.0566 | -0.0203 | -0.0963 | -0.0775 | -0.0339 | -0.0322 | -0.0798 | 0.0075 | -0.0522 | -0.0143 | -0.0431 |
| CN(C)CCCOc1ccc(-c2ccc3ncc4c(c3c2)n(C2CCOCC2)c(=O)n4C)cn1 [AZD0156] + CCN(CCO)CCCOc1ccc2c(Nc3cc(CC(=O)Nc4cccc(F)c4)[nH]n3)ncnc2c1 [AZD2811] (first compound max 1 µM, 7x7, partner max 1 µM) | -0.0074 | -0.0356 | -0.0087 | -0.0556 | 0.0365 | 0.0032 | 0.0088 | 0.0018 | -0.0347 | -0.0232 | -0.0768 | -0.0451 | -0.039 | -0.0223 | 0.0017 | -0.0083 | -0.0088 | 0.0242 | -0.0527 | 0.0239 |
| CN(C)CCCOc1ccc(-c2ccc3ncc4c(c3c2)n(C2CCOCC2)c(=O)n4C)cn1 [AZD0156] + C[C@@H]1COCCN1C2=NC(=NC(=C2)C3(CC3)[S@](=N)(=O)C)C4=C5C=CNC5=NC=C4 [AZD6738] (first compound max 1 µM, 7x7, partner max 10 µM) | 0.0088 | -0.0216 | 0.0294 | -0.0549 | 0.0039 | 0.0122 | -0.0133 | -0.0004 | 0.0001 | -0.0439 | -0.0134 | -0.0689 | -0.0129 | -0.0007 | 0.0189 | -0.01 | -0.003 | -0.0145 | -0.0395 | 0.024 |
| CN(C)CCCOc1ccc(-c2ccc3ncc4c(c3c2)n(C2CCOCC2)c(=O)n4C)cn1 [AZD0156] + O=C(c1cc(Cc2n[nH]c(=O)c3ccccc23)ccc1F)N1CCN(C(=O)C2CC2)CC1 [Olaparib] (first compound max 3 µM, partner max 3 µM) | 0.0148 | -0.0491 | -0.0029 | -0.0585 | 0.0562 | 0.0373 | 0.0334 | -0.0122 | 0.0239 | 0.109 | 0.0638 | 0.0454 | -0.0356 | -0.0456 | 0.0122 | -0.019 | -0.0328 | 0.0111 | 0.0549 | 0.0378 |
| C=CCn1c(=O)c2cnc(Nc3ccc(N4CCN(C)CC4)cc3)nc2n1-c1cccc(C(C)(C)O)n1 [AZD1775] + C1CN(CCC1(C(=O)N[C@@H](CCO)C2=CC=C(C=C2)Cl)N)C3=NC=NC4=C3C=CN4 [Capivasertib] (first compound max 3 µM, partner max 3 µM) | -0.0394 | -0.059 | -0.107 | 0.0315 | 0.0493 | -0.087 | -0.0459 | -0.0409 | – | -0.0422 | – | -0.105 | -0.0144 | -0.0609 | -0.0726 | -0.0294 | 0.0073 | 0.0152 | 0.0014 | -0.0099 |
| C=CCn1c(=O)c2cnc(Nc3ccc(N4CCN(C)CC4)cc3)nc2n1-c1cccc(C(C)(C)O)n1 [AZD1775] + C[C@@H]1COCCN1C2=NC(=NC(=C2)C3(CC3)[S@](=N)(=O)C)C4=C5C=CNC5=NC=C4 [AZD6738] (first compound max 1 µM, partner max 10 µM) | 0.0087 | -0.0125 | 0.0427 | -0.04 | 0.0662 | 0.0039 | 0.0071 | 0.0326 | -0.0005 | 0.0041 | -0.0105 | -0.0805 | -0.137 | 0.0315 | -0.0075 | -0.0073 | -0.0286 | -0.0231 | 0.0081 | 0.0433 |
| C=CCn1c(=O)c2cnc(Nc3ccc(N4CCN(C)CC4)cc3)nc2n1-c1cccc(C(C)(C)O)n1 [AZD1775] + O=C(c1cc(Cc2n[nH]c(=O)c3ccccc23)ccc1F)N1CCN(C(=O)C2CC2)CC1 [Olaparib] (first compound max 1 µM, partner max 10 µM) | 0.0057 | -0.0054 | -0.0292 | -0.0369 | 0.0046 | 0.0065 | -0.0422 | -0.0142 | -0.0188 | 0.0017 | -0.0005 | -0.068 | -0.0166 | -0.0327 | -0.0766 | 0.02 | -0.042 | -0.0181 | -0.0236 | -0.0226 |
| CCN(CCO)CCCOc1ccc2c(Nc3cc(CC(=O)Nc4cccc(F)c4)[nH]n3)ncnc2c1 [AZD2811] + C=CCn1c(=O)c2cnc(Nc3ccc(N4CCN(C)CC4)cc3)nc2n1-c1cccc(C(C)(C)O)n1 [AZD1775] (first compound max 1 µM, partner max 1 µM) | 0.0264 | -0.0323 | 0.0395 | -0.0945 | 0.0491 | 0.0502 | 0.029 | -0.006 | -0.0323 | -0.0484 | -0.04 | -0.0672 | -0.0716 | -0.006 | 0.0469 | 0.0092 | 0.0272 | -0.0161 | -0.0017 | -0.0033 |
| CCN(CCO)CCCOc1ccc2c(Nc3cc(CC(=O)Nc4cccc(F)c4)[nH]n3)ncnc2c1 [AZD2811] + C[C@@H]1COCCN1C2=NC(=NC(=C2)C3(CC3)[S@](=N)(=O)C)C4=C5C=CNC5=NC=C4 [AZD6738] (first compound max 1 µM, 7x7, partner max 10 µM) | -0.0842 | -0.0409 | -0.0627 | -0.0537 | 0.0177 | -0.0249 | -0.0218 | -0.0054 | -0.0203 | -0.0749 | -0.0451 | -0.0372 | -0.0472 | -0.0532 | -0.0337 | -0.0342 | -0.0856 | 0.0305 | -0.0502 | -0.0252 |
| Cc1c2c(nn1C)CSCc1cc(n(C)n1)CSc1cc(c3ccccc3c1)OCCCc1c(C(=O)O)n(C)c3c-2c(Cl)ccc13 [AZD5991] + C=CCn1c(=O)c2cnc(Nc3ccc(N4CCN(C)CC4)cc3)nc2n1-c1cccc(C(C)(C)O)n1 [AZD1775] (first compound max 1 µM, partner max 1 µM) | -0.0118 | -0.0137 | 0.0386 | 0.116 | 0.059 | -0.0388 | – | -0.0502 | -0.0401 | 0.0207 | -0.0346 | 0.0396 | -0.0182 | -0.0326 | -0.0014 | -0.0647 | -0.0243 | -0.012 | -0.0235 | 0.0736 |
| Cc1c2c(nn1C)CSCc1cc(n(C)n1)CSc1cc(c3ccccc3c1)OCCCc1c(C(=O)O)n(C)c3c-2c(Cl)ccc13 [AZD5991] + C[C@@H]1COCCN1C2=NC(=NC(=C2)C3(CC3)[S@](=N)(=O)C)C4=C5C=CNC5=NC=C4 [AZD6738] (first compound max 1 µM, 7x7, partner max 10 µM) | 0.0029 | -0.0255 | 0.0015 | -0.0053 | 0.0802 | -0.0471 | -0.0135 | 0.0406 | -0.0227 | 0.0863 | 0.031 | 0.0528 | 0.0332 | 0.0111 | 0.0187 | -0.079 | – | 0.0003 | – | -0.0012 |
| Cc1c2c(nn1C)CSCc1cc(n(C)n1)CSc1cc(c3ccccc3c1)OCCCc1c(C(=O)O)n(C)c3c-2c(Cl)ccc13 [AZD5991] + Cc1cc2ncnn2cc1Nc1ncc2c(n1)n(C1CCOCC1)c(=O)n2C [AZD7648] (first compound max 1 µM, 7x7, partner max 10 µM) | -0.0282 | -0.0152 | -0.0466 | -0.0664 | 0.0281 | -0.0392 | -0.014 | -0.0093 | -0.0157 | -0.0295 | 0.0016 | -0.0418 | 0.0033 | – | -0.0098 | -0.0622 | -0.0476 | -0.0332 | 0.0115 | -0.0426 |
| CS(=O)(=O)CCNCc1ccc(-c2ccc3ncnc(Nc4ccc(OCc5cccc(F)c5)c(Cl)c4)c3c2)o1 [Lapatinib] + Cn1cnc2c(F)c(Nc3ccc(Br)cc3Cl)c(C(=O)NOCCO)cc21 [Selumetinib] (first compound max 10 µM, 7x7, partner max 10 µM) | -0.0337 | -0.0654 | – | -0.0383 | – | 0.0047 | 0.0251 | – | -0.0206 | – | 0.0683 | -0.0168 | – | – | – | – | – | – | -0.113 | – |
| CS(=O)(=O)CCNCc1ccc(-c2ccc3ncnc(Nc4ccc(OCc5cccc(F)c5)c(Cl)c4)c3c2)o1 [Lapatinib] + NC1(c2ccc(-c3nc4ccn5c(=O)[nH]nc5c4cc3-c3ccccc3)cc2)CCC1 [MK-2206] (first compound max 10 µM, 7x7, partner max 10 µM) | -0.0142 | -0.0408 | -0.0441 | -0.0411 | – | 0.0031 | -0.0026 | -0.0202 | 0.0128 | – | 0.0539 | 0.037 | – | -0.0237 | – | – | – | 0.0328 | 0.0212 | – |
| CCc1c2c(nc3ccc(O)cc13)-c1cc3c(c(=O)n1C2)COC(=O)[C@]3(O)CC [SN-38] + O=C(c1cc(Cc2n[nH]c(=O)c3ccccc23)ccc1F)N1CCN(C(=O)C2CC2)CC1 [Olaparib] (first compound max 0.3 µM, 7x7, partner max 10 µM) | 0.0141 | 0.0387 | 0.0825 | 0.0711 | – | 0.0057 | 0.0247 | 0.0337 | 0.026 | – | 0.0327 | 0.0331 | – | 0.086 | – | 0.032 | 0.052 | – | 0.0284 | 0.0639 |
| Cc1nc(-c2cn3c(n2)-c2ccc(-c4cnn(C(C)(C)C(N)=O)c4)cc2OCC3)n(C(C)C)n1 [Taselisib] + O=C(Nc1ccc2[nH]nc(-c3ccncc3)c2c1)[C@@H]1CCN(CC(=O)N2CCN(c3ccc(-c4ncccn4)cc3)CC2)C1 [SCH772984] (first compound max 10 µM, 7x7, partner max 5 µM) | 0.0942 | 0.0839 | – | 0.0272 | – | 0.106 | 0.0665 | – | 0.0128 | – | 0.0524 | 0.0325 | – | – | – | – | – | – | -0.0218 | – |
